# Source: patent publication US11530216B2, “Deuterated colony stimulating factor-1 receptor (CSF-1R) inhibitors” (Genzyme Corporation, priority 2020, dated 2022)
# Key:
# Assay type in all cases: cell-based
# [1] = tested on: MCP-1 production in primary mouse microglia (wild type, SOD1); assay: MCP-1 ELISA, wild-type and SOD1 primary microglia, CSF-1 stimulation; settings: CSF-1 stimulation, 50, 100, 200 nM, wild type and SOD1 cells
# Method: The impact of a deuterated CSF-1R inhibitor of this disclosure on cytokine/chemokine production following CSF-1 or LPS stimulation in wild-type versus SOD1 mutant primary microglial cells was examined in the following experiments.
# Methods Treatment and Stimulation of Primary Microglial Cells
# (§1) Primary mouse microglia were suspended at a concentration of 5×10^5 cells/mL and 100 μL of this cell suspension was added to each well of a 96-well plate. Microglia cells were allowed to rest overnight at 37° C., 5% CO2. […] Cells were then stimulated with 100 ng/mL recombinant mouse M-CSF for 30 minutes or 10 ng/mL lipopolysaccharide for 24 hours. After stimulation, the culture supernatant was removed from each well and aliquoted into two different 96-well plates for subsequent ELISA assays.
# Culture supernatants were assayed with the Quantikine Mouse MCP-1 ELISA kit from R&D Systems (cat #SMJE00B). Samples were diluted 1:10 with Calibrator Diluent. Fifty microliters of Assay Diluent were first added to each well. Fifty microliters of Standards, Assay Control and diluted Sample were then added to the wells. The plate was mixed by gently tapping the frame, then sealed with an adhesive strip. The plate incubated for 2 hours at room temperature. […] After incubation, the acid stop solution was added to each well, and the plate was read on the ELISA plate reader at 450 nm.
# [2] = tested on: iCell microglia (human iPSC derived microglia); assay: CellTiter Glo 2.0 viability assay, iCell human microglia, CSF1 stimulation; settings: 1.5625-200 nM, CSF1 100 ng/mL 24 hours
# Method: iCell microglia (human iPSC derived microglia) were acquired from FujiFilm (cat #C1110, lot #105458). These cells were thawed and maintained in iCell Microglia Complete Media according the manufacture instructions. For this assay, iCell microglia were resuspended at a concentration of 5×10^5 cells/mL and 100 μL of this cell suspension was added to the inner 60 wells of a 96-well plate. iCell microglia were allowed to rest overnight at 37° C., 5% CO2. The following evening, the media was removed and replaced with Neurobasal Media (Gibco, cat #21103049) containing B27 supplement (Gibco, cat #17504044). Again, cells were allowed to rest overnight at 37° C., 5% CO2. […] Cells were then stimulated with 100 ng/mL recombinant human CSF1 for 24 hours. After stimulation, the culture supernatant was removed from each well and aliquoted into two different 96-well plates for subsequent ELISA assays.
# Cell viability was determined using the CellTiter Glo 2.0 Luminescent Cell Viability Assay (Promega, cat #G9242). […] 100 μL was transferred from each well to a white plate and luminescence was read immediately on the FlexStation3 Multi-Mode Microplate Reader (Molecular Devices, cat #Flex3) with SoftMax Pro Software.
# iCell microglia (human iPSC derived microglia) were plated at 50,000 cells per well and rested overnight. […] Cell viability was assessed utilizing Promega's Cell Titer Glo Assay Kit. […]
# [3] = tested on: MCP-1 production in primary murine microglial cells; assay: MCP-1 ELISA, primary mouse microglia after CSF-1 stimulation; settings: Mus musculus, Microglia, 24 h, read-out: IC50, MCP-1 production
# Method: as §1, with “to the inner 60 wells” for “to each well”, “of three” for “of a”, “96-well plates.” for “96-well plate.”, “mouse CSF-1” for “mouse M-CSF for 30 minutes or 10 ng/mL lipopolysaccharide”, “assays. Plates were fixed with 4% PFA for future immunocytochemistry analysis.” for “assays.”
smiles,measurement,setting,value
"[2H]c1nc2cccnc2n1Cc1cc(OC)c2c(c1)O[C@@H](C)[C@H](c1ccc(OC)nc1)O2 [Compound 6, 3-(((2S,3S)-8-methoxy-2-(6-methoxypyridin-3-yl)-3-methyl-2,3-dihydrobenzo[b][1,4]dioxin-6-yl)methyl)-3H-imidazo[4,5-b]pyridine-2-d]",MCP-1 production,[1],significantly reduced MCP-1 production in a concentration dependent manner
same,human microglia viability,[2],did not impact human microglia viability at the concentrations assessed
same,IC50,[3],23.2 nM
